Test results as given in ChEMBL document CHEMBL5038626 (Eur J Med Chem, 2022).
pIC50: −log10 of the molar value. Converted amounts (≈) assume the structure as drawn. The source made the active and inactive calls. No cut-off for these calls is given here.

How the values were obtained:
Staphylococcus aureus = assay: Antibacterial activity against Staphylococcus aureus Newman assessed as inhibition of bacterial growth incubated for 24 hrs by broth microdilution method; assay type: functional
Escherichia coli = assay: Antibacterial activity against Escherichia coli ATCC 8739 assessed as inhibition of bacterial growth incubated for 24 hrs by broth microdilution method; assay type: functional
Topoisomerase IV = Topoisomerase IV (Staphylococcus aureus, UniProt P0C1S7+P0C1U9); assay: Inhibition of Staphylococcus aureus topoisomerase 4 assessed as reduction in decatenation using kDNA as substrate incubated for 30 mins by fluorimetric assay; assay type: protein-complex assay
Sequence of Topoisomerase IV (P0C1U9 whole entry): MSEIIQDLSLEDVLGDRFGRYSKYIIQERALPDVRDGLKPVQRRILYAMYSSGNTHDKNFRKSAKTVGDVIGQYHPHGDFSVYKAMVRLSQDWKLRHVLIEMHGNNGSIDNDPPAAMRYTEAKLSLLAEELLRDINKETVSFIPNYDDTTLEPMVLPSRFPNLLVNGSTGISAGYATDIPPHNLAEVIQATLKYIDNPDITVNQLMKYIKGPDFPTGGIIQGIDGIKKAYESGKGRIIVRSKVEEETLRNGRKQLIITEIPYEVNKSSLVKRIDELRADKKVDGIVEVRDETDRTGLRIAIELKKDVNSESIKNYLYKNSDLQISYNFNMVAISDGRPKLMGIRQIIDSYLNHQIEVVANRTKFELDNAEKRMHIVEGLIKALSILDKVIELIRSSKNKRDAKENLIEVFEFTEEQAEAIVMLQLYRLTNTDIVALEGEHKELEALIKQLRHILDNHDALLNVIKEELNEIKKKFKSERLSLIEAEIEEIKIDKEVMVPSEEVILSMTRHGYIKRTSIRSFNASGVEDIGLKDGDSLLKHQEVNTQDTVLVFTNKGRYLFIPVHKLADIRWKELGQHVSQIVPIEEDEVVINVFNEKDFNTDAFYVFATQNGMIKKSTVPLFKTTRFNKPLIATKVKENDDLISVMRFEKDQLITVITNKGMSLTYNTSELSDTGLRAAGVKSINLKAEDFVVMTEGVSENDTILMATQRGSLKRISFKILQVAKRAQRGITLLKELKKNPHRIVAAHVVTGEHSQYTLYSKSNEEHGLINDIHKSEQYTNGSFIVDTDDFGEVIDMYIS
Sequence of Topoisomerase IV (P0C1S7 whole entry): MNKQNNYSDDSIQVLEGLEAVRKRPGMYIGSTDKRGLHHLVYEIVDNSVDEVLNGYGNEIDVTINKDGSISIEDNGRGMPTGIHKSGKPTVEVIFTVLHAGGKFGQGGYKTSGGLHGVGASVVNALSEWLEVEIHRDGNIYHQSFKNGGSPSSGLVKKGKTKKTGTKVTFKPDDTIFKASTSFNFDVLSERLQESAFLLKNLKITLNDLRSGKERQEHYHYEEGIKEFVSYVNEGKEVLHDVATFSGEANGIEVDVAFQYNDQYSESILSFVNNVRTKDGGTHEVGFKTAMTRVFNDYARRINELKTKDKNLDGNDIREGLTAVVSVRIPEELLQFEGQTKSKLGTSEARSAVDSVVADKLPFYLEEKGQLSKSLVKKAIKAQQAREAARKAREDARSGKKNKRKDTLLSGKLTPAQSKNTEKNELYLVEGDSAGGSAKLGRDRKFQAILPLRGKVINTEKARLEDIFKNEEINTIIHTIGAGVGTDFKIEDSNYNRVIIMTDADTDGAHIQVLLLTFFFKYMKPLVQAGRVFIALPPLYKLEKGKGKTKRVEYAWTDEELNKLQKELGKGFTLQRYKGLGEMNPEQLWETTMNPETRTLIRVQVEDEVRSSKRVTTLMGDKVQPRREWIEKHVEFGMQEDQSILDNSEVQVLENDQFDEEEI

DNA gyrase = DNA gyrase (Escherichia coli, UniProt P0AES4+P0AES6); assay: Inhibition of Escherichia coli DNA gyrase supercoiling activity using pBR322 as substrate incubated for 30 mins by fluorimetric assay; assay type: protein-complex assay
Mus musculus = assay: Effect on GABA protein expression in Swiss albino mouse assessed as decrease in GABA protein expression at 0.6 mmol/Kg, iv administered as single dose by western blot analysis; assay type: functional, organism-based
[1] = Toxicity in Swiss albino mouse assessed as clonic convulsions at 0.6 mmol/Kg, iv administered as single dose observed for 6 hrs; assay type: organism-based; conditions: in vivo

SMILES	MIC (Staphylococcus aureus)	MIC (Escherichia coli)	pIC50 (Topoisomerase IV)	pIC50 (DNA gyrase)	Activity (Mus musculus)	Activity [1]
O=C(CN1CCN(c2cc3c(cc2F)c(=O)c(C(=O)O)cn3C2CC2)CC1)Nc1ccc(S(=O)(=O)Nc2cncc(Cl)n2)cc1	1.52 µM (≈ 1 µg/mL)	2.54 µM (≈ 1.67 µg/mL)	5.64	6.05		
O=C(O)c1cn(C2CC2)c2cc(N3CCN(/N=N/c4ccc(S(=O)(=O)Nc5ncccn5)cc4)CC3)c(F)cc2c1=O	0.422 µM (≈ 0.25 µg/mL)	0.013 µM (≈ 0.0077 µg/mL)	5.02	4.89		
O=C(O)c1cn(C2CC2)c2cc(N3CCN(/N=N/c4ccc(S(=O)(=O)Nc5cnc6ccccc6n5)cc4)CC3)c(F)cc2c1=O	5.19 µM (≈ 3.33 µg/mL)	0.389 µM (≈ 0.25 µg/mL)	4.89	5.23		
Cc1cc(NS(=O)(=O)c2ccc(NC(=O)C(C)N3CCN(c4cc5c(cc4F)c(=O)c(C(=O)O)cn5C4CC4)CC3)cc2)no1 (stereo unspecified)	0.783 µM (≈ 0.5 µg/mL)	1.04 µM (≈ 0.667 µg/mL)	6.41	5.90	Active	Non-Toxic
NS(=O)(=O)c1ccc(/N=N/N2CCN(c3cc4c(cc3F)c(=O)c(C(=O)O)cn4C3CC3)CC2)cc1	0.324 µM (≈ 0.167 µg/mL)	0.025 µM (≈ 0.0129 µg/mL)	5.61	5.45		
NS(=O)(=O)c1ccc(NC(=O)CCN2CCN(c3cc4c(cc3F)c(=O)c(C(=O)O)cn4C3CC3)CC2)cc1	2.99 µM (≈ 1.67 µg/mL)	0.897 µM (≈ 0.5 µg/mL)	6.22	5.96		
O=C(CN1CCN(c2cc3c(cc2F)c(=O)c(C(=O)O)cn3C2CC2)CC1)Nc1ccc(S(=O)(=O)Nc2cnc3ccccc3n2)cc1	1.99 µM (≈ 1.33 µg/mL)	0.744 µM (≈ 0.5 µg/mL)	6.46	6.26	Active	Non-Toxic
O=C(CCN1CCN(c2cc3c(cc2F)c(=O)c(C(=O)O)cn3C2CC2)CC1)Nc1ccc(S(=O)(=O)Nc2cnc3ccccc3n2)cc1	0.972 µM (≈ 0.667 µg/mL)	0.608 µM (≈ 0.417 µg/mL)	6.64	6.37	Active	Non-Toxic
NC(N)=NS(=O)(=O)c1ccc(/N=N/N2CCN(c3cc4c(cc3F)c(=O)c(C(=O)O)cn4C3CC3)CC2)cc1	1.8 µM (≈ 1 µg/mL)	3 µM (≈ 1.67 µg/mL)	6.19	6.11	Active	Non-Toxic
O=C(O)c1cn(C2CC2)c2cc(N3CCNCC3)c(F)cc2c1=O [CIPROFLOXACIN]	1.36 µM (≈ 0.45 µg/mL)	0.255 µM (≈ 0.0845 µg/mL)				
CC(C(=O)Nc1ccc(S(N)(=O)=O)cc1)N1CCN(c2cc3c(cc2F)c(=O)c(C(=O)O)cn3C2CC2)CC1 (stereo unspecified)	1.5 µM (≈ 0.834 µg/mL)	0.897 µM (≈ 0.5 µg/mL)	5.18	5.25		
Cc1cc(NS(=O)(=O)c2ccc(/N=N/N3CCN(c4cc5c(cc4F)c(=O)c(C(=O)O)cn5C4CC4)CC3)cc2)no1	0.839 µM (≈ 0.5 µg/mL)	1.12 µM (≈ 0.666 µg/mL)	5.59	5.71		
O=C(CN1CCN(c2cc3c(cc2F)c(=O)c(C(=O)O)cn3C2CC2)CC1)Nc1ccc(S(=O)(=O)Nc2ncccn2)cc1	1.61 µM (≈ 1 µg/mL)	1.34 µM (≈ 0.834 µg/mL)	5.68	5.54		
Cc1cc(NS(=O)(=O)c2ccc(NC(=O)CN3CCN(c4cc5c(cc4F)c(=O)c(C(=O)O)cn5C4CC4)CC3)cc2)no1	3.2 µM (≈ 2 µg/mL)	7.47 µM (≈ 4.67 µg/mL)	5.33	5.88		
CC(C(=O)Nc1ccc(S(=O)(=O)Nc2cnc3ccccc3n2)cc1)N1CCN(c2cc3c(cc2F)c(=O)c(C(=O)O)cn3C2CC2)CC1 (stereo unspecified)	0.729 µM (≈ 0.5 µg/mL)	1.94 µM (≈ 1.33 µg/mL)	5.92	5.84		
O=C(CCN1CCN(c2cc3c(cc2F)c(=O)c(C(=O)O)cn3C2CC2)CC1)Nc1ccc(S(=O)(=O)Nc2cncc(Cl)n2)cc1	287 µM (≈ 192 µg/mL)	287 µM (≈ 192 µg/mL)	6.36	5.91		
NS(=O)(=O)c1ccc(NC(=O)CN2CCN(c3cc4c(cc3F)c(=O)c(C(=O)O)cn4C3CC3)CC2)cc1	7.36 µM (≈ 4 µg/mL)	12.3 µM (≈ 6.67 µg/mL)	5.42	5.88		
O=C(CCN1CCN(c2cc3c(cc2F)c(=O)c(C(=O)O)cn3C2CC2)CC1)Nc1ccc(S(=O)(=O)Nc2ncccn2)cc1	1.57 µM (≈ 1 µg/mL)	2.62 µM (≈ 1.67 µg/mL)	5.74	5.70		
Cc1cc(NS(=O)(=O)c2ccc(NC(=O)CCN3CCN(c4cc5c(cc4F)c(=O)c(C(=O)O)cn5C4CC4)CC3)cc2)no1	1.04 µM (≈ 0.667 µg/mL)	5.22 µM (≈ 3.33 µg/mL)	5.41	5.20		
O=C(O)c1cn(C2CC2)c2cc(N3CCN(/N=N/c4ccc(S(=O)(=O)Nc5cncc(Cl)n5)cc4)CC3)c(F)cc2c1=O	1.59 µM (≈ 1 µg/mL)	1.33 µM (≈ 0.833 µg/mL)	4.89	4.89		
